Source: patent US4416885A, “Use of isopropylaminopyrimidine in the chemotherapy of muscular dystrophy, myopathy and myotonia” (priority 1982, dated 1983)

Key:
[1] = system: pectoral muscle fibre of dystrophic chickens; test: Histopathology of pectoral muscle; format: in vivo, chicken; conditions: for % Fibre Splitting / % Phagocytosis / Hypertrophy Factor / Mean Endomysial Area / Nuclei/Fibre / Peripheral Nuclei (% of Total) / Range (endomysial area) / Variability Coefficient: 30 days
Text: Muscle fibre area increase greatly in the dystrophic chicken as does the range of fibre area sizes. Nuclei become displaced peripherally and both features can be measured quantitatively and compared with normal controls.
The main difference between 4-week (FIG. 1A) and 7-week old (FIG. 2A) normal muscle from pectoral biopsies, at the light microscopic level, is with regard to myofibre growth. There is an increase in fibre area and a redistribution of the position and number of muscle nuclei. The latter change from a random distribution in the fibre in the 4-week bird to a central location in the 7-week bird of about 80% of the nuclei. The fibres are closely packed, with very little connective tissue present and every fibre is clearly polygonal in shape.
In contrast, dystrophic pectoral muscle has very few fibres which appear normal at 4 weeks of age. They are nearly all rounded in shape (as opposed to polygonal) and many are hypertrophic. Longitudinal fibre splitting occurs and the muscle nuclei lie preferentially against the sarcolemma (FIG. 1B). There is a large increase in perimysial connective tissue. By 7 weeks, massive hypertrophy occurs (FIG. 2B). Fibre splitting leads to hyperplasia. […] Pyknotic nuclei appear, and the muscle nuclei are randomly scattered throughout the fibre. Connective tissue often appears very dense. Some fibres are starting to atrophy and fatty tissue replacement can sometimes be seen at this stage.

Dystrophic monocytes = test: Effect on human monocytes in culture (flat cells), dystrophic; format: cell-based; conditions: dystrophic monocytes + IAPP, six individuals, cultured 5-7 days; without IAPP 36.2%; preliminary

For CC(C)Nc1ncccn1.O=P(O)(O)O [IAPP, 2-isopropylaminopyrimidine orthophosphate], which “% Fibre Splitting” value ([1]; 150 mg) is on record?
Its value is 3.0%.

What about the “% Phagocytosis” value ([1]; 150 mg) of the same compound?
The value was 0.0%.

And the “Hypertrophy Factor” value ([1]; 150 mg)?
Its value is 125.

And the “Mean Endomysial Area” value ([1]; 150 mg)?
The value was 1025 μm^2.

What about the Nuclei/Fibre ([1]; 150 mg) of the same compound?
Its Nuclei/Fibre is 2.5.

And the “Peripheral Nuclei (% of Total)” value ([1]; 150 mg)?
The value was 46.1 % of Total.

And the “Range (endomysial area)” value ([1]; 150 mg)?
The value was 82-2001 μm^2.

What about the “Variability Coefficient” value ([1]; 150 mg) of the same compound?
Its value is 416.

What about the Fibres still polygonal ([1]; 150 mg/Kg daily, 7 week old biopsy) of the same compound?
The Fibres still polygonal was 50%.

What about the “% Fibre Splitting” value ([1]; 200 mg) of the same compound?
The value was 8.4%.

And the “% Phagocytosis” value ([1]; 200 mg)?
Its value is 1.6%.

What about the “Hypertrophy Factor” value ([1]; 200 mg) of the same compound?
The value was 460.

And the “Mean Endomysial Area” value ([1]; 200 mg)?
Its value is 763 μm^2.

What about the Nuclei/Fibre ([1]; 200 mg) of the same compound?
The Nuclei/Fibre was 2.5.

And the “Peripheral Nuclei (% of Total)” value ([1]; 200 mg)?
The value was 59.1 % of Total.

What about the “Range (endomysial area)” value ([1]; 200 mg) of the same compound?
Its value is 54-2554 μm^2.

And the “Variability Coefficient” value ([1]; 200 mg)?
The value was 709.

What about the “% Fibre Splitting” value ([1]; 300 mg (3× wk.)) of the same compound?
Its value is 3.0%.

What about the “% Phagocytosis” value ([1]; 300 mg (3× wk.)) of the same compound?
Its value is 0.0%.

What about the “Hypertrophy Factor” value ([1]; 300 mg (3× wk.)) of the same compound?
Its value is 10.

What about the “Mean Endomysial Area” value ([1]; 300 mg (3× wk.)) of the same compound?
Its value is 449 μm^2.

And the Nuclei/Fibre ([1]; 300 mg (3× wk.))?
The Nuclei/Fibre was 1.3.

And the “Peripheral Nuclei (% of Total)” value ([1]; 300 mg (3× wk.))?
Its value is 40.9 % of Total.

And the “Range (endomysial area)” value ([1]; 300 mg (3× wk.))?
Its value is 51-1060 μm^2.

And the “Variability Coefficient” value ([1]; 300 mg (3× wk.))?
The value was 518.

What about the “% Fibre Splitting” value ([1]; 300 mg) of the same compound?
Its value is 10.3%.

What about the “% Phagocytosis” value ([1]; 300 mg) of the same compound?
The value was 0.3%.

And the “Hypertrophy Factor” value ([1]; 300 mg)?
Its value is 100.

What about the “Mean Endomysial Area” value ([1]; 300 mg) of the same compound?
The value was 552 μm^2.

What about the Nuclei/Fibre ([1]; 300 mg) of the same compound?
The Nuclei/Fibre was 1.7.

What about the “Peripheral Nuclei (% of Total)” value ([1]; 300 mg) of the same compound?
The value was 42.1 % of Total.

What about the “Range (endomysial area)” value ([1]; 300 mg) of the same compound?
Its value is 24-1226 μm^2.

And the “Variability Coefficient” value ([1]; 300 mg)?
Its value is 580.

What about the “Muscle appearance vs normal muscle” value ([1]; 300 mg/Kg 3 times/week at 30 days) of the same compound?
Its value is “indistinguishable from normal muscle”.

What about the “Dosage at which histological parameters most closely approximate normal values” ([1]; i.p.) of the same compound?
The value was 300 mg/Kg.

And the Muscle morphology ([1]; oral 1 g/Kg daily for 35 days)?
Its Muscle morphology is “marked improvements in the muscle morphology”.

And the “% Flat Cells” value (Dystrophic monocytes)?
Its value is 45.1%.
